Legend:
[1] = test system: primary human fibroblasts derived from IPF patients (LL29 cells) treated with TGF-β1; assay: Inhibition of fibrotic process, αSMA staining in TGF-β1 treated LL29 fibroblasts; assay type: cell-based; conditions: Fibroblast, 96 h, TGF-β1 20 ng/mL, 4 days, % cells positive for αSMA
Summary of the method: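 Human IPF-derived LL29 lung fibroblasts in 1% FBS, TGF-β1 20 ng/mL, 11-point compound series, 0.1% DMSO, 4 days at 37 °C. SYTOX-positive cells excluded; % αSMA-positive cells imaged, normalized to TGF-β1/DMSO wells, EC50 by nonlinear fit. Above 10 μM, % inhibition at 10 μM given.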

[2] = test system: primary human mesenchymal stem cells (hMSCs); assay: Chondrogenesis induction in hMSCs (chondrogenic nodules); assay type: cell-based; conditions: 144 h, 6 days; for EC50: concentration required to induce 50% levels of chondrogenesis vs TGF-β3, read-out: Conc (nM) of 50% TGF-β3 activity; for Emax: nodules, relative to TGF-β3 positive control (10 ng/mL), read-out: Max. Activity as % TGF-β3 activity
Experimental: Representative compounds were screened using primary human mesenchymal stem cells (hMSCs) to determine their ability to induce chondrogenesis (process by which cartilage is developed).
Primary human mesenchymal stem cells (hMSCs) were purchased from Lonza (Walkersville, Md.) and expanded in Mesenchymal Stem Cell Growth Media (Lonza). Cells between passage 3 and 6 were used for the experiments.
Each compound was dissolved in DMSO as a 10 mM stock and used to prepare compound source plates. Serial dilution (1:3, 6-point dose-response curves from 2700 nM to 10 nM) and compound transfer was performed using the ECHO 550 (Labcyte, Sunnyvale, Calif.) into 96-well clear bottom assay plates (Greiner Bio-One) with appropriate DMSO backfill for a final DMSO concentration of 0.03%. hMSCs were plated at 20,000 cells/well in 250 μL/well Incomplete Chondrogenic Induction Medium (Lonza; DMEM, dexamethasone, ascorbate, insulin-transferrin-selenium [ITS supplement], gentamycin-amphotericin [GA-1000], sodium pyruvate, proline and L-glutamine). TGF-03 (10 ng/mL) was used as a positive control for differentiation while negative control wells were treated with 75 nL DMSO for normalization and calculating EC50 values. Cells were incubated at 37° C. and 5% CO2 for 6 days. To image chondrogenic nodules, the cells were fixed using 4% formaldehyde (Electron Microscopy Sciences), and stained with 2 μg/mL Rhodamine B (Sigma-Aldrich) and 20 μM Nile Red (Sigma-Aldrich) [Johnson K., et. al, A Stem Cell-Based Approach to Cartilage Repair, Science, (2012), 336(6082), 717-721]. The nodules imaged (4 images per well at 4× magnification) by excitation at 531 nm and emission at 625 nm and quantified using the CellInsight CX5 (Thermo Scientific). Number of nodules in each well was normalized to the average of 3 DMSO treated wells on the same plate using Excel (Microsoft Inc.). The normalized averages (fold change over DMSO) of 3 replicate wells for each compound concentration were calculated. Due to solubility limitations of some of the compounds, curve fitting was incomplete leading to inaccurate EC50 determinations.
Using TGF-β3 as a positive control, the concentration of representative compounds required to induce 50% levels of chondrogenesis is reported. In addition, the maximum activity of each compound and the respective dose that each compound reached maximum chondrogenesis activity is reported.

Structure (SMILES)	EC50 [1] [nM]	EC50 [2] [nM]	Emax [2] [%]
Cc1ccncc1-c1ccc2[nH]nc(-c3cc4c(-c5cc(F)cc(CNS(C)(=O)=O)c5)cncc4[nH]3)c2n1 [Compound 481, N-(3-Fluoro-5-(2-(5-(4-methylpyridin-3-yl)-1H-pyrazolo[4,3-b]pyridin-3-yl)-1H-pyrrolo[2,3-c]pyridin-4-yl)benzyl)methanesulfonamide]	262	10	87
Fc1cccc(-c2cncc3[nH]c(-c4n[nH]c5ccc(-c6cncc(CN7CCCCC7)c6)nc45)cc23)c1 [Compound 15, 3-(4-(3-Fluorophenyl)-1H-pyrrolo[2,3-c]pyridin-2-yl)-5-(5-(piperidin-1-ylmethyl)pyridin-3-yl)-1H-pyrazolo[4,3-b]pyridine]	> 10000	10	54
CN(C)c1cncc(-c2ccc3[nH]nc(-c4cc5c(-c6cccc(F)c6)cncc5[nH]4)c3n2)c1 [Compound 7, 5-(3-(4-(3-Fluorophenyl)-1H-pyrrolo[2,3-c]pyridin-2-yl)-1H-pyrazolo[4,3-b]pyridin-5-yl)-N,N-dimethylpyridin-3-amine]	450	100	85
c1cc(-c2cncc3[nH]c(-c4n[nH]c5ccc(-c6cncc(CN7CCCCC7)c6)nc45)cc23)ccn1 [Compound 127, 5-(5-(Piperidin-1-ylmethyl)pyridin-3-yl)-3-(4-(pyridin-4-yl)-1H-pyrrolo[2,3-c]pyridin-2-yl)-1H-pyrazolo[4,3-b]pyridine]	4960	10	97
FC1(F)CCN(Cc2cncc(-c3ccc4[nH]nc(-c5cc6c(-c7cccnc7)cncc6[nH]5)c4n3)c2)C1 [Compound 110, 5-(5-((3,3-Difluoropyrrolidin-1-yl)methyl)pyridin-3-yl)-3-(4-(pyridin-3-yl)-1H-pyrrolo[2,3-c]pyridin-2-yl)-1H-pyrazolo[4,3-b]pyridine]	329	–	23
Cc1ccncc1-c1ccc2[nH]nc(-c3cc4c(-c5cccnc5)cncc4[nH]3)c2n1 [Compound 89, 5-(4-Methylpyridin-3-yl)-3-(4-(pyridin-3-yl)-1H-pyrrolo[2,3-c]pyridin-2-yl)-1H-pyrazolo[4,3-b]pyridine]	1540	10	149

— US10519169B2, “3-(1H-pyrrolo[2,3-C]pyridin-2-yl)-1 H-pyrazolo[4,3-B]pyridines and therapeutic uses thereof” (Samumed, LLC, priority 2015, dated 2019)
